This passage reports CYP1A2 induction and CYP3A4 induction results from patent publication US20190302100A1, “METHOD FOR PREPARING LIVER PROGENITOR CELLS” (National Cancer Center, priority 2016, published 2019).

For series [1], the system named is CYP1A2. Kind of series: Activity of metabolic enzyme CYP1A2 (Luciferin 1A2 kit) in hepatocytes taken out from transplanted cDNA-uPA/SCID mice. The format is cell-based, human. The text has this:
After that, cDNA-uPA/SCID mice (2 to 4 M, Male; manufactured by PhoenixBio Co., Inc.) were subjected to laparotomy under isoflurane anesthesia, the spleen was exposed, 0.5×10^5 to 2×10^6 liver progenitor cells per mouse were implanted, and then the abdomen was sutured. On day 73 after implantation, the liver was removed and perfused. Hepatocytes were separated, and cultured for 4 days on 24-well collagen plates (manufactured by IWAKI) at 4×10^5 cells/well using 2% FBS-SHM medium.
(§1) For the hepatocytes taken out from the mice, the activity of the metabolic enzyme CYP1A2 was measured using methanol (MeOH, at a concentration of 1%) and omeprazole (OMP, 50 μM). […] The activities of these metabolic enzymes were measured with Luciferin 1A2 kit and Luciferin-IPA kit from Promega, respectively.

The test system of series [2] is CYP3A4. On the procedure: On day 73 after implantation, the liver was removed and perfused. Hepatocytes were separated, and cultured for 4 days on 24-well collagen plates (manufactured by IWAKI) at 4×10^5 cells/well using 2% FBS-SHM medium.
as §1

On to `COc1ccc2[nH]c([S+]([O-])Cc3ncc(C)c(OC)c3C)nc2c1` (stereo not drawn) [omeprazole], for which the CYP1A2 induction result is on record as “induced” in series [1] (Example 14: cells from donor 10 M, omeprazole 50 μM vs methanol 1%) and “induced” in series [1] (Example 15: cells from donor 8 M, as in Example 14).
In the case of `CCC1(c2ccccc2)C(=O)NC(=O)NC1=O` [phenobarbital], in series [2], the CYP3A4 induction result is “induced”.
